{
  "source": "patent US20210386829A1",
  "about": "“COMPOSITIONS AND METHODS FOR MODULATING CGRP SIGNALING TO REGULATE INNATE LYMPHOID CELL INFLAMMATORY RESPONSES” (The Broad Institute, Inc., priority 2018, published 2021)",
  "test_system": "IL-33-induced airway inflammation",
  "test": "IL-33-induced airway inflammation, intranasal co-administration of CGRP",
  "assay_type": "in vivo, mouse",
  "excerpt": "Mice and in vivo ILC activation. C57B1/6J mice were purchased from the Jackson Laboratory. Nmur1-LacZ reporter mice with a LacZ cassette knocked into the Nmur1 locus were rederived from Nmur1^tm1.1(KOMP)Vlcg sperm obtained from the trans-NIH Knock-Out Mouse Project (KOMP) Repository. NMU-deficient mice (NMU-KO) were rederived from B6.129S2-Nmu<tm1Mko> embryos from the RIKEN BioResource Center. For experiments with Nmur1-LacZ (Nmur1-KO) and NMU-KO mice, littermates that were either homozygous or heterozygous for the wild type allele were used as controls. Mice were housed under specific-pathogen-free conditions. For experiments, mice were matched for sex and age, and most mice were 6-10 weeks old. Where indicated, mice were anesthetized with Isoflurane and treated intranasally with the indicated stimuli (500 ng IL-25, 500 ng IL-33, or 20 μg Neuromedin U) daily for three consecutive days. The total administered volume was 20 μl for all conditions. Mice were randomly assigned to treatment groups after matching for sex and age. […] Mice were treated intranasally with 10 μg HDM on day 0, 7, 8, and 9, prior to sacrifice on day 10. All experiments were conducted in accordance with animal protocols approved by the Harvard Medical Area Standing Committee on Animals or BWH IACUC.\nLung analysis. Mice were sacrificed and perfused with cold PBS. Where indicated, after perfusion, broncho-alveolar lavage (BAL) was obtained by injecting 1.5 ml cold PBS into the lungs via a secured tracheal cannula. BALF was centrifuged, and the supernatant was used for analyzing cytokine levels and the cell pellet was resuspended, counted, and used for flow cytometry. Following BAL, lung lobes were dissected. The post-caval lobe was fixed in buffered formalin for histological analysis. Single cell suspensions of the remaining lung parenchymal tissue were prepared with the GentleMACS lung dissociation kit (Miltenyi Biotec) according to the manufacturer's instructions. Where indicated, cells were diluted in 10% Trypan Blue and viable cells counted using a hemocytometer.\nHistology. Following paraffin embedding, sections of the formalin-fixed lung lobe were stained by H&E staining. Tissue sections were scored by a histopathologist in a blinded manner for severity of lung inflammation according to the following scoring system: 0=normal, 1=very mild, 2=mild, 3=moderate or 4=severe.\nMethacholine challenge. Airway hyperresponsiveness was determined as previously described (Talbot, S. et al. Silencing Nociceptor Neurons Reduces Allergic Airway Inflammation. Neuron 87, 341-354, doi:10.1016/j.neuron.2015.06.007 (2015)) using a flexiVent rodent ventilator (SciReq).\nCytokine-induced airway inflammation. Mice received nasally 500 ng IL-25, 500 ng IL-33, 20 ug NMU or 6.65 ug CGRP diluted in DPBS for three consecutive days. For nasal administration, mice were lightly anesthetized with Isoflurane (Cat #07-893-1389; Patterson Veterinary). For induction of inflammatory ILC2s, mice received intraperitoneally 500 ng IL-25 for three consecutive days. One day after the last treatment, mice were euthanized and perfused with 8 ml cold PBS via the right heart ventricle. After exposure of the trachea, a small incision was made at the top of the trachea and a curved gavage needle was inserted. Lungs were washed with 1.5 ml cold PBS via the needle and the retrieved bronchoalveolar lavage fluid was centrifuged at 1300 rpm for 5 min at 4 C. After centrifugation, the supernatant was frozen at −20° C. and the cell pellet was resuspended in 250 ul complete medium and stored on ice until flow cytometric analysis. The post-caval lung lobe was transferred into 10% buffered formalin and stored at room temperature until paraffin embedding for histological analysis. […]",
  "key": {"[1]": {"settings": "IL-33+CGRP vs IL-33 alone, intranasal, three consecutive days"}},
  "note": "Entries after “also recorded” stand apart in the source; their conditions may differ.",
  "data": [
    {"substance": "CGRP: neuropeptide calcitonin gene-related peptide (encoded by Calca), ligand of the Ramp1/Calcrl receptor; given at 100 nM in vitro, 6.65 ug nasally", "values": [
      {"measurement": "lung histology (H&E)", "setting": "CGRP alone vs PBS-treated control mice", "value": "histologically identical"},
      {"measurement": "frequency or total number of lung-resident ILCs", "setting": "CGRP alone vs PBS-treated mice", "value": "did not alter"},
      {"measurement": "IL-33-induced perivascular and peribronchial lymphocytic infiltrates in lung sections (H&E, blinded score)", "setting": "IL-33+CGRP vs IL-33 alone", "value": "markedly inhibited"},
      {"measurement": "airway hyperreactivity (airway resistance, methacholine challenge)", "setting": "IL-33+CGRP vs IL-33 alone", "value": "less airway hyperreactivity"},
      {"measurement": "frequency of IL-5- and IL-13-positive ILCs", "setting": "IL-33+CGRP vs IL-33 alone", "value": "significantly reduced"},
      {"measurement": "frequency of Ki67+ lung ILCs", "setting": "IL-33+CGRP vs IL-33 alone", "value": "decreased frequencies"},
      {"measurement": "lung ILC frequencies and numbers", "setting": "IL-33+CGRP vs IL-33 alone", "value": "significantly reduced"},
      {"measurement": "IL-5 and IL-13 protein in BALF (lung homogenates and BALF)", "setting": "[1]", "value": "lower; also recorded: reduced; also recorded: greatly diminished"},
      {"measurement": "eosinophil frequency in lungs and BALF", "setting": "[1]", "value": "significantly reduced; also recorded: significantly decreased"},
      {"measurement": "eosinophil numbers in lung (lung and BALF)", "setting": "[1]", "value": "significantly reduced; also recorded: significantly decreased"},
      {"measurement": "Il5 and Il13 RNA expression in lung tissue (qPCR)", "setting": "IL-33+CGRP vs IL-33 alone, intranasal, three consecutive days, analysed one day later", "value": "significantly reduced"}
    ]}
  ]
}
